Reference: US20060205774A1, “4-(4-(Heterocyclylakoxy) phenyl-1-(heterocyclyl-carbonyl) piperidine derivavites and related compounds as histamine h3 antagonists for the treatment of neurological diseases such as alzheimer's” (priority 2003, published 2006)

Target: T1, histamine H3 receptor (Homo sapiens, UniProt Q9Y5N1)
T1 construct: expressed in transfected cells; host or cells: CHO K1 cells carrying pSwitch, transfected with pGeneH3, mifepristone-induced; clone 3H3; membrane preparation
Assay: Histamine H3 functional antagonist assay (GTPγS SPA on membranes)
Assay type: biochemical
Details: membranes of CHO K1 cells expressing human histamine H3; [35S]GTPγS; histamine 0.3 μM
Description: A membrane preparation containing histamine H3 receptors may be prepared in accordance with the following procedures:
Ligated DNA was transformed into competent DH5α E. coli host bacterial cells and plated onto Luria Broth (LB) agar containing Zeocin™ (an antibiotic which allows the selection of cells expressing the sh ble gene which is present on pGene and pSwitch) at 50 μg ml^−1. Colonies containing the re-ligated plasmid were identified by restriction analysis. DNA for transfection into mammalian cells was prepared from 250 ml cultures of the host bacterium containing the pGeneH3 plasmid and isolated using a DNA preparation kit (Qiagen Midi-Prep) as per manufacturers guidelines (Qiagen).
CHO K1 cells previously transfected with the pSwitch regulatory plasmid (InVitrogen) were seeded at 2×10e6 cells per T75 flask in Complete Medium, containing Hams F12 (GIBCOBRL, Life Technologies) medium supplemented with 10% v/v dialysed foetal bovine serum, L-glutamine, and hygromycin (100 μg ml^−1), 24 hours prior to use. Plasmid DNA was transfected into the cells using Lipofectamine plus according to the manufacturers guidelines (InVitrogen). 48 hours post transfection cells were placed into complete medium supplemented with 500 μg ml^−1 Zeocin™.
10-14 days post selection 10 nM Mifepristone (InVitrogen), was added to the culture medium to induce the expression of the receptor. […] Approximately 1×10e7 cells were examined for receptor expression by staining with a rabbit polyclonal antibody, 4a, raised against the N-terminal domain of the histamine H3 receptor, incubated on ice for 60 minutes, followed by two washes in sorting medium. […] Following two further washes with Sorting Medium, cells were filtered through a 50 μm Filcon™ (BD Biosciences) and then analysed on a FACS Vantage SE Flow Cytometer fitted with an Automatic Cell Deposition Unit. […] Positively stained cells were sorted as single cells into 96-well plates, containing Complete Medium containing 500 μg ml^−1 Zeocin™ and allowed to expand before reanalysis for receptor expression via antibody and ligand binding studies. […]

T1 sequence (Q9Y5N1 whole entry): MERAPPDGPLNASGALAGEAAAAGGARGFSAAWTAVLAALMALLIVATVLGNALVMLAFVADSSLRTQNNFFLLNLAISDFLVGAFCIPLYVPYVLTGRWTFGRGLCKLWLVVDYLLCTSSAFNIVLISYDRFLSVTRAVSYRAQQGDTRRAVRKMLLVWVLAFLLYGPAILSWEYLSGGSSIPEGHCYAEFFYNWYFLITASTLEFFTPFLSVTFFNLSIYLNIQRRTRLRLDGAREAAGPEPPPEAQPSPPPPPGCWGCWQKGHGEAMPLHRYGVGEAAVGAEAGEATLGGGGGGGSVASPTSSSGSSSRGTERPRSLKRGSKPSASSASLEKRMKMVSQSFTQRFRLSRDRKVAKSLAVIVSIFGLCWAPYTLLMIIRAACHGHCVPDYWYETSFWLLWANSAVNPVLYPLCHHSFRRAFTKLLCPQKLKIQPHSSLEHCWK

Row | Kb [nM] | Compound
1 | < 1 | CC(C)N1CCC(Oc2ccc(C3CCN(C(=O)c4ccc(C#N)nc4)CC3)cc2)CC1 [Example E51, 5-{[4-(4-{[1-(1-Methylethyl)-4-piperidinyl]oxy}phenyl)-1-piperidinyl]carbonyl}-2-pyridinecarbonitrile]
2 | < 1 | CC(C)N1CCC(Oc2ccc(C3CCN(C(=O)c4ccc(C#N)cc4)CC3)cc2)CC1 [Example E12, 4-{[4-(4-{[1-(1-Methylethyl)-4-piperidinyl]oxy}phenyl)-1-piperidinyl]carbonyl}benzonitrile]
3 | < 1 | CC(C)N1CCC(Oc2ccc(C3CCN(C(=O)c4ccc(C(F)(F)F)nc4)CC3)cc2)CC1 [Example E52, 5-{[4-(4-{[1-(1-Methylethyl)-4-piperidinyl]oxy}phenyl)-1-piperidinyl]carbonyl}-2-(trifluoromethyl)pyridine]
